Measured values: patent US6806276B2, “2-oxoquinoline compounds and pharmaceutical uses thereof” (Japan Tobacco Inc., priority 1999, dated 2004)
Read-outs that look alike come from different tables or passages of the source.

What was measured:
[1] = molecular target: T1, human peripheral type cannabinoid receptor (hCB2) (Homo sapiens, UniProt P34972); experiment: Binding assay (in vitro), [3H]Win55212-2 displacement, membrane fractions of human CB2-CHO; settings: for Ki: hCB2 expressed in CHO cells, [3H]Win55212-2 2 nM, 30° C. 90 minutes
T1 construct: expressed in transfected cells; host or cells: CHO cells
Method: (§1) Membrane fractions of human central type cannabinoid receptor (human CB1-CHO, hereinafter called hCB1) and human peripheral type cannabinoid receptor (human CB2-CHO, hereinafter called hCB2) expressed in CHO cells were used as samples. The reference material (hCB1: 20 μg/ml, hCB2: 5 μg/ml), labeled ligand ([^3H]Win55212-2, 2 nM) and unlabeled ligand Win55212-2 or test compound were added to a 24-well round bottom plate, and the plate was incubated at 30° C. for 90 minutes. 50 mM Tris-HB55 containing 0.2% BSA was used as an assay buffer. After incubation, the mixture was filtered (Packard, Unifilter 24GF/B) and dried, and then a scintillation solution (Packard, Microsint-20) was added thereto to determine the radioactivity of the sample (Packard, Top count A9912V). Nonspecific binding was determined by the addition of excessive amount of Win55212-2 (10 μM), and specific binding was calculated by subtracting the nonspecific binding from total binding determined by the addition of the labeled ligand only. The test compound was dissolved in DMSO to make the final concentration in DMSO to be 0.1%. IC50 value was determined from the proportion of the bound test compound in the specific binding, and K1 value of the test compound was calculated from the ICso value and Kd value of [^3H]Win55212-2. K1 value for the central type receptors/K1 value for peripheral type receptors (C/S) was also calculated as an indicator of the selectivity of the test compound for peripheral type receptors.

[2] = molecular target: T2, human central type cannabinoid receptor (hCB1) (Homo sapiens, UniProt P21554); experiment: Binding assay (in vitro), [3H]Win55212-2 displacement, membrane fractions of human CB1-CHO; settings: hCB1 expressed in CHO cells, [3H]Win55212-2 2 nM, 30° C. 90 minutes
T2 construct: expressed in transfected cells; host or cells: CHO cells
Method: as §1

[3] = Ki value Peripheral type receptor (S)
[4] = indicator of selectivity for peripheral type receptors
[5] = read-out: Ki value Central type receptor (C)
[6] = Ki value Central type receptor (C)
[7] = read-out: Ki value Peripheral type receptor (S)

T1 sequence (P34972 whole entry): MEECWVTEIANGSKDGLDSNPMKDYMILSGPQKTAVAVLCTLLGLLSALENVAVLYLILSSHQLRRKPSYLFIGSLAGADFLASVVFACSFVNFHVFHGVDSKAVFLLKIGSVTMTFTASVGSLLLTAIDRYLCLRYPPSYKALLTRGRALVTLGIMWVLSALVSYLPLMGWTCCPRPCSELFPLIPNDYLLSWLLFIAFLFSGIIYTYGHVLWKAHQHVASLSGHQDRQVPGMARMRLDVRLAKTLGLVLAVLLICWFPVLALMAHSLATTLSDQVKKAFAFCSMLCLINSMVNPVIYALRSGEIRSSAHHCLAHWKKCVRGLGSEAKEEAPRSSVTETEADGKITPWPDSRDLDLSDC
T2 sequence (P21554 whole entry): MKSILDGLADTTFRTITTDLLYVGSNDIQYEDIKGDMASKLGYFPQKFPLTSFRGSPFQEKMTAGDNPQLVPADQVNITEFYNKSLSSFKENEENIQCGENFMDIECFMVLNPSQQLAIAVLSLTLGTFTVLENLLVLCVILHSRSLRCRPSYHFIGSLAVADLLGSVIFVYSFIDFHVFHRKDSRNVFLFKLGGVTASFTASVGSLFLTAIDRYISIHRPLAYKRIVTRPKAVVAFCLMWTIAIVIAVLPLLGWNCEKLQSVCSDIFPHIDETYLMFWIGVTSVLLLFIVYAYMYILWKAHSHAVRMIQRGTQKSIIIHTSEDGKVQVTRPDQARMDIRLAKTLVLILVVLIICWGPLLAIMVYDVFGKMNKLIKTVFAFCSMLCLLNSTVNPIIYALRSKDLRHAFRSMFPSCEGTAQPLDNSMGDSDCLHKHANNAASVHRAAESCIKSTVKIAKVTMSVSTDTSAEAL

SMILES	Ki [1, 3]	C/S (Ki central type receptors / Ki peripheral type receptors) [1, 4]	Ki [2, 5]	C/S (Ki central type receptors / Ki peripheral type receptors) [1]	Ki [2, 6]	Ki [1, 7]
CCCCCOc1c(OC)ccc2cc(C(=O)NCc3ccc(F)cc3)c(=O)[nH]c12 [Example 3-25, 7-methoxy-2-oxo-8-pentyloxy-1,2-dihydroquinoline-3-carboxylic acid (4-fluorobenzyl)amide]	1.29 nM	344	444 nM	–	–	–
CCCCCOc1c(OC)ccc2cc(C(=O)NCCc3ccncc3)c(=O)[nH]c12 [Example 3-1, 7-methoxy-2-oxo-8-pentyloxy-1,2-dihydroquinoline-3-carboxylic acid (2-pyridine-4-ylethyl)amide]	0.13 ± 0.05 nM	–	–	372	49 nM	–
CCCCCOc1c(OC)ccc2cc(C(=O)NCCc3ccc(F)cc3)c(=O)n(C)c12 [Example 3-36, 1-methyl-7-methoxy-2-oxo-8-pentyloxy-1,2-dihydroquinoline-3-carboxylic acid [2-(4-fluorophenyl)ethyl]amide]	0.021 nM	8695	183 nM	–	–	–
CCCCCOc1cc2cc(C(=O)OC)c(=O)n(C)c2cc1OC [Example 1-4, 1-methyl-7-methoxy-2-oxo-6-pentyloxy-1,2-dihydroquinoline-3-carboxylic acid methyl ester]	4.49 nM	362	1630 nM	–	–	–
CCCCCOc1ccc2cc(C(=O)NCCc3ccc(F)cc3)c(=O)[nH]c2c1OCCCCC [Example 3-46, 7,8-dipentyloxy-2-oxo-1,2-dihydroquinoline-3-carboxylic acid [2-(4-fluorophenyl)ethyl]amide]	0.026 nM	8776	–	–	228 nM	–
CCCCOc1c(OC)ccc2cc(C(=O)NCCc3ccncc3)c(=O)[nH]c12 [Example 3-16, 8-butoxy-7-methoxy-2-oxo-1,2-dihydroquinoline-3-carboxylic acid (2-pyridine-4-ylethyl)amide]	0.01 nM	20805	208 nM	–	–	–
CCOc1c(OC)ccc2cc(CO)c(=O)[nH]c12 [Example 5-2, 8-ethoxy-3-hydroxymethyl-7-methoxy-2-oxo-1,2-dihydroquinoline]	–	2219	122 nM	–	–	0.055 nM
CCCCOc1c(OC)ccc2cc(COC(=O)Nc3ccc(F)cc3)c(=O)[nH]c12 [Example 6-1, N-(4-fluorophenyl)carbamic acid (8-butoxy-7-methoxy-2-oxo-1,2-dihydroquinoline-3-yl)methyl ester]	–	15612	703 nM	–	–	0.045 nM
CCCCOc1c(OC)ccc2cc(CO)c(=O)[nH]c12 [Example 5-1, 8-butoxy-3-hydroxy methyl-7-methoxy-2-oxo-1,2-dihydroquinoline]	–	–	686 nM	–	–	0.45 nM
CCCCCOc1c(OC)ccc2cc(C(=O)NCCc3ccc(O)c(OC)c3)c(=O)[nH]c12 [Example 3-21, 7-methoxy-2-oxo-8-pentyloxy-1,2-dihydroquinoline-3-carboxylic acid [2-(4-hydroxy-3-methoxyphenyl)ethyl]amide]	0.97 nM	167	162 nM	–	–	–
CCCCCOc1c(OC)ccc2cc(C(=O)NCCc3cccc(F)c3)c(=O)[nH]c12 [Example 3-20, 7-methoxy-2-oxo-8-pentyloxy-1,2-dihydroquinoline-3-carboxylic acid [2-(3-fluorophenyl)ethyl]amide]	0.41 nM	–	–	191	78 nM	–
CCCCCOc1cc2cc(C(=O)O)c(=O)[nH]c2cc1OC [Example 2-5, 7-methoxy-2-oxo-6-pentyloxy-1,2-dihydroquinoline-3-carboxylic acid]	0.2 nM	–	434 nM	–	–	–
